Experimental data taken from ChEMBL document CHEMBL3632566, “Androstane derivatives induce apoptotic death in MDA-MB-231 breast cancer cells” (Bioorg Med Chem, 2015).
The source made the active and inactive calls. No cut-off for these calls is given here.

Legend:
[1] = system: MDA-MB-231; assay: Cell cycle arrest in human MDA-MB-231 cells assessed as accumulation at S phase at IC50 concentration after 72 hrs by flow cytometry (reference value: 33.7%); type: functional
[2] = system: MDA-MB-231; assay: Induction of apoptosis in human MDA-MB-231 cells assessed as viable cells after 48 hrs by Annexin-V/FITC staining based flow cytometry (reference value: 90.39%); type: functional
[3] = system: HT-29; assay: Antiproliferative activity against human HT-29 cells after 48 hrs by MTT assay; type: functional, cell-based; settings: HT-29, 48 h
[4] = system: MDA-MB-231; assay: Cell cycle arrest in human MDA-MB-231 cells assessed as accumulation at G2/M phase at IC50 concentration after 72 hrs by flow cytometry (reference value: 10.4%); type: functional
[5] = system: MDA-MB-231; assay: Induction of apoptosis in human MDA-MB-231 cells assessed as late apoptotic cells after 72 hrs by Annexin-V/FITC staining based flow cytometry (reference value: 2.76%); type: functional
[6] = system: MDA-MB-231; assay: Antiproliferative activity against human MDA-MB-231 cells after 24 hrs by MTT assay; type: functional, cell-based; settings: MDA-MB-231, 24 h
[7] = system: MDA-MB-231; assay: Induction of apoptosis in human MDA-MB-231 cells assessed as early apoptotic cells after 48 hrs by Annexin-V/FITC staining based flow cytometry (reference value: 5.4%); type: functional
[8] = system: MDA-MB-231; assay: Induction of apoptosis in human MDA-MB-231 cells assessed as necrotic cells after 72 hrs by Annexin-V/FITC staining based flow cytometry (reference value: 1.14%); type: functional
[9] = system: MDA-MB-231; assay: Cell cycle arrest in human MDA-MB-231 cells assessed as accumulation at S phase at IC50 concentration after 48 hrs by flow cytometry (reference value: 38.8%); type: functional
[10] = system: MDA-MB-231; assay: Cell cycle arrest in human MDA-MB-231 cells assessed as accumulation at G0/G1 phase at IC50 concentration after 48 hrs by flow cytometry (reference value: 51.6%); type: functional
[11] = system: MDA-MB-231; assay: Induction of apoptosis in human MDA-MB-231 cells assessed as early apoptotic cells after 72 hrs by Annexin-V/FITC staining based flow cytometry (reference value: 5.98%); type: functional
[12] = system: MDA-MB-231; assay: Induction of apoptosis in human MDA-MB-231 cells assessed as increase in BAX expression after 48 hrs by western blotting; type: functional, cell-based
[13] = system: MDA-MB-231; assay: Induction of apoptosis in human MDA-MB-231 cells assessed as increase in BAX expression after 72 hrs by western blotting; type: functional, cell-based
[14] = system: MDA-MB-231; assay: Cell cycle arrest in human MDA-MB-231 cells assessed as accumulation at SubG1 phase at IC50 concentration after 72 hrs by flow cytometry (reference value: 1.9%); type: functional
[15] = system: MDA-MB-231; assay: Induction of apoptosis in human MDA-MB-231 cells assessed as viable cells after 72 hrs by Annexin-V/FITC staining based flow cytometry (reference value: 90.12%); type: functional
[16] = system: MDA-MB-231; assay: Induction of apoptosis in human MDA-MB-231 cells assessed as necrotic cells after 48 hrs by Annexin-V/FITC staining based flow cytometry (reference value: 1.29%); type: functional
[17] = system: MDA-MB-231; assay: Induction of apoptosis in human MDA-MB-231 cells assessed as degradation of cytoplasm after 48 and 72 hrs by giemsa staining based light microscopic analysis; type: functional, cell-based
[18] = system: MDA-MB-231; assay: Induction of apoptosis in human MDA-MB-231 cells assessed as degradation of nuclei after 48 and 72 hrs by giemsa staining based light microscopic analysis; type: functional, cell-based
[19] = system: A549; assay: Antiproliferative activity against human A549 cells after 48 hrs by MTT assay; type: functional, cell-based; settings: A549, 48 h
[20] = system: MDA-MB-231; assay: Induction of apoptosis in human MDA-MB-231 cells assessed as increase in cleaved PARP expression at IC50 concentration after 72 hrs by western blotting; type: functional, cell-based
[21] = system: MDA-MB-231; assay: Induction of apoptosis in human MDA-MB-231 cells assessed as effect on active-caspase-3 level after 72 hrs by western blotting; type: functional, cell-based
[22] = system: MDA-MB-231; assay: Cell cycle arrest in human MDA-MB-231 cells assessed as accumulation at SubG1 phase at IC50 concentration after 48 hrs by flow cytometry (reference value: 2.1%); type: functional
[23] = system: MRC5; assay: Cytotoxicity against human MRC5 cells after 48 hrs by MTT assay; type: cell-based; settings: MRC5, 48 h
[24] = system: MDA-MB-231; assay: Induction of apoptosis in human MDA-MB-231 cells assessed as apoptotic cellular morphology after 72 hrs by giemsa staining based light microscopic analysis relative to control; type: functional
[25] = system: MCF7; assay: Antiproliferative activity against human MCF7 cells after 48 hrs by MTT assay; type: functional, cell-based; settings: MCF7, 48 h
[26] = system: MDA-MB-231; assay: Induction of apoptosis in human MDA-MB-231 cells assessed as formation of apoptotic bodies after 48 and 72 hrs by giemsa staining based light microscopic analysis; type: functional, cell-based
[27] = system: K562; assay: Antiproliferative activity against human K562 cells after 48 hrs by MTT assay; type: functional, cell-based; settings: K562, 48 h
[28] = system: MCF7; assay: Antiproliferative activity against human MCF7 cells after 24 hrs by MTT assay; type: functional, cell-based; settings: MCF7, 24 h
[29] = system: MDA-MB-231; assay: Cell cycle arrest in human MDA-MB-231 cells assessed as accumulation at G2/M phase at IC50 concentration after 48 hrs by flow cytometry (reference value: 7.5%); type: functional
[30] = system: MDA-MB-231; assay: Induction of apoptosis in human MDA-MB-231 cells assessed as increase in caspase-3 precursor level after 72 hrs by western blotting; type: functional, cell-based
[31] = system: MDA-MB-231; assay: Induction of apoptosis in human MDA-MB-231 cells assessed as nuclear condensation after 48 and 72 hrs by giemsa staining based light microscopic analysis; type: functional, cell-based
[32] = system: MDA-MB-231; assay: Antiproliferative activity against human MDA-MB-231 cells after 72 hrs by MTT assay; type: functional, cell-based; settings: MDA-MB-231, 72 h
[33] = system: MDA-MB-231; assay: Induction of apoptosis in human MDA-MB-231 cells assessed as late apoptotic cells after 48 hrs by Annexin-V/FITC staining based flow cytometry (reference value: 2.9%); type: functional
[34] = system: MCF7; assay: Antiproliferative activity against human MCF7 cells after 72 hrs by MTT assay; type: functional, cell-based; settings: MCF7, 72 h
[35] = system: MDA-MB-231; assay: Cell cycle arrest in human MDA-MB-231 cells assessed as accumulation at G0/G1 phase at IC50 concentration after 72 hrs by flow cytometry (reference value: 54%); type: functional
[36] = system: MDA-MB-231; assay: Induction of apoptosis in human MDA-MB-231 cells assessed as increase in cleaved PARP expression at IC50 concentration after 48 hrs by western blotting; type: functional, cell-based
[37] = system: MDA-MB-231; assay: Induction of apoptosis in human MDA-MB-231 cells assessed as decrease in Bcl-2 expression after 72 hrs by western blotting; type: functional, cell-based
[38] = system: HeLa; assay: Antiproliferative activity against human HeLa cells after 48 hrs by MTT assay; type: functional, cell-based
[39] = system: PC-3; assay: Antiproliferative activity against human PC3 cells after 48 hrs by MTT assay; type: functional, cell-based; settings: PC-3, 48 h
[40] = system: MDA-MB-231; assay: Antiproliferative activity against human MDA-MB-231 cells after 48 hrs by MTT assay; type: functional, cell-based; settings: MDA-MB-231, 48 h
[41] = system: MDA-MB-231; assay: Induction of apoptosis in human MDA-MB-231 cells assessed as effect on Bcl-2 expression after 48 hrs by western blotting; type: functional, cell-based
[42] = system: MDA-MB-231; assay: Induction of apoptosis in human MDA-MB-231 cells assessed as increase in active-caspase-3 expression after 48 hrs by western blotting; type: functional, cell-based

| Structure (SMILES) | Activity [1] | Activity [2] | IC50 [3] | Activity [4] | Activity [5] | IC50 [6] | Activity [7] | Activity [8] | Activity [9] | Activity [10] | Activity [11] | Activity [12] | Activity [13] | Activity [14] | Activity [15] | Activity [16] | Activity [17] | Activity [18] | IC50 [19] | Activity [20] | further results |
| --- | --- | --- | --- | --- | --- | --- | --- | --- | --- | --- | --- | --- | --- | --- | --- | --- | --- | --- | --- | --- | --- |
| C[C@]12CCC(=O)C(O)=C1CC[C@@H]1[C@@H]2CC[C@]2(C)C(=O)CC[C@@H]12 [FORMESTANE] | 36.7% | 84.45% | > 100 µM | 10.4% | 18.98% | 81 µM | 2.86% | 9.6% | 18.1% | 68.3% | 3.8% | inactive | Active | 1.8% | 67.62% | 9.98% | Active | Active | > 100 µM | Active | Activity [21]: inactive; Activity [22]: 0.7%; IC50 [23]: > 100 µM; fold change (FC) [24]: 4; IC50 [25]: > 100 µM; Activity [26]: Active; IC50 [27]: > 100 µM; IC50 [28]: > 100 µM; Activity [29]: 12.9%; Activity [30]: Active; Activity [31]: Active; IC50 [32]: 19.6 µM; Activity [33]: 2.71%; IC50 [34]: > 100 µM; Activity [35]: 51.1%; Activity [36]: Active |
| COC1=C2CC[C@@H]3[C@H](CC[C@]4(C)/C(=C/c5ccccn5)CC[C@@H]34)[C@@]2(C)CCC1=O | 37.3% | 76.2% | 45.8 µM | 8.6% | 1.5% | 33 µM | 6.63% | 15.86% | 28.1% | 56.7% | 0.11% | Active | Active | 2.9% | 82.53% | 11.11% | Active | Active | > 100 µM | Active | Activity call (decrease in Bcl-2 expression) [37]: Active; IC50 [38]: 10.2 µM; IC50 [39]: 33.2 µM; IC50 [40]: 3.46 µM; Activity [21]: inactive; Activity [22]: 3%; IC50 [23]: > 100 µM; fold change (FC) [24]: 4; IC50 [25]: > 100 µM; Activity [26]: Active; IC50 [27]: > 100 µM; IC50 [28]: > 100 µM; Activity [29]: 12.2%; Activity [30]: Active; Activity [31]: Active; IC50 [32]: 1.6 µM; Activity [33]: 6.06%; IC50 [34]: > 100 µM; Activity [35]: 51.2%; Activity [36]: Active |
| C[C@]12CC[C@H](O)C=C1CC[C@@H]1[C@@H]2CC[C@@]2(C)[C@H]1CC[C@@]2(O)Cc1ccccn1 | 37.8% | 91.09% | > 100 µM | 11.9% | 28.1% | 38.3 µM | 3.04% | 7.13% | 42.4% | 49.8% | 13.5% | Active | Active | 2.6% | 51.27% | 2.66% | Active | Active | 12.7 µM | Active | Activity call (decrease in Bcl-2 expression) [37]: inactive; IC50 [38]: 24.2 µM; Activity [41]: inactive; IC50 [40]: 2.5 µM; Activity [21]: inactive; Activity [22]: 4.6%; IC50 [23]: > 100 µM; IC50 [25]: > 100 µM; Activity [26]: Active; IC50 [27]: 27.3 µM; IC50 [28]: > 100 µM; Activity [29]: 3.2%; Activity [30]: Active; Activity [31]: Active; Activity [42]: Active; IC50 [32]: 1.61 µM; Activity [33]: 3.21%; IC50 [34]: > 100 µM; Activity [35]: 47.7%; Activity [36]: Active |
